“Also recorded” adds a separate entry of the source.
Biological target: T1, hTAS1R1 H71S/rTAS1R3 (Homo sapiens, UniProt Q7RTX1, H71S)
T1 construct: UniProtKB number Q7RTX1–1); expressed in transfected cells; host or cells: HEK293T/17 (ATCC CRL-11268)
T1 sequence (Q7RTX1 21-841 H71S): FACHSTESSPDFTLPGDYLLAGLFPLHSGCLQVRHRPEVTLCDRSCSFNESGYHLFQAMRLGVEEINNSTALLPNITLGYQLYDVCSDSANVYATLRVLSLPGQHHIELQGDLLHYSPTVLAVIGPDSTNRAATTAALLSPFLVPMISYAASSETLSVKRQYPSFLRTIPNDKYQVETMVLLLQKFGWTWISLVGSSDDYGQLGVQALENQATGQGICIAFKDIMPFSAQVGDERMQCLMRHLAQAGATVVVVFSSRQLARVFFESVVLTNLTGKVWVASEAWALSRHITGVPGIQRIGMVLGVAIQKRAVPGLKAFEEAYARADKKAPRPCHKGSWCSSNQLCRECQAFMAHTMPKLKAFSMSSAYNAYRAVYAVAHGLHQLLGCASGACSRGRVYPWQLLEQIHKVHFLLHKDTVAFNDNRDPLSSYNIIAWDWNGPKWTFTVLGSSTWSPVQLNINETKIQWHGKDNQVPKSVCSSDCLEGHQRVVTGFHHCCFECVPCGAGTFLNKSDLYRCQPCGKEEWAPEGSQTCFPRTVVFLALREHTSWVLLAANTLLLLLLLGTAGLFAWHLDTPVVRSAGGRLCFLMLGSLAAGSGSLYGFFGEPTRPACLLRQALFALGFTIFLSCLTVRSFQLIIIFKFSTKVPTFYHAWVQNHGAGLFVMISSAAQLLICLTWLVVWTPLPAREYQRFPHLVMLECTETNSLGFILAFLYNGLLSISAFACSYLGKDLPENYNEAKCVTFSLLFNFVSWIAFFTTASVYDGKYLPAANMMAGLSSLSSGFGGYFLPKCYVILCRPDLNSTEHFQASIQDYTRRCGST
T1 sequence (Q923K1 21-858 partner): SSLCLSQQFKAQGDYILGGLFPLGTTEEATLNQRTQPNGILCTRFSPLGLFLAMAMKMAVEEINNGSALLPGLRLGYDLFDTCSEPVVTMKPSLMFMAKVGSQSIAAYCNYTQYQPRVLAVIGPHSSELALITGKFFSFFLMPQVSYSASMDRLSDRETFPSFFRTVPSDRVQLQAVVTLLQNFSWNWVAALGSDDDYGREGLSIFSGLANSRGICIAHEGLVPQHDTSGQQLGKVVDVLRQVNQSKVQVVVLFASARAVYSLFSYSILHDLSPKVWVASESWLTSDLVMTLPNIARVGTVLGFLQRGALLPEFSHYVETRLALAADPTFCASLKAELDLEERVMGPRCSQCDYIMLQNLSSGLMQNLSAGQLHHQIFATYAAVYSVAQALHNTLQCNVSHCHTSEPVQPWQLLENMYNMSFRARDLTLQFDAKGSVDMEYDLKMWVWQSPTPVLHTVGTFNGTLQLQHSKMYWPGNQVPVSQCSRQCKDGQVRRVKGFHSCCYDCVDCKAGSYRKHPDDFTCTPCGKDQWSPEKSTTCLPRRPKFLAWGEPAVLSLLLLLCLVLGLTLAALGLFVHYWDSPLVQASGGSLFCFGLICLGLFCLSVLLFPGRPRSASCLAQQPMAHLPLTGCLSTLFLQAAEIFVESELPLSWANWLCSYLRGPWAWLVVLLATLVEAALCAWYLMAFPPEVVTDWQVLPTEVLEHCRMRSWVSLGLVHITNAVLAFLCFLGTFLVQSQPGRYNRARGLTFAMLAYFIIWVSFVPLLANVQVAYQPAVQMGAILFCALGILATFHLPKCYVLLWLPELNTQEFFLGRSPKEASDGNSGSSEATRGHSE
Experiment: Calcium assay, hTAS1R1 mutant co-expressed with rTAS1R3
Format: cell-based, rat
Details: for response to the agonist alone, vs WT: H71S
Text: Chimeric Gα proteins, such as Gα16Gust44, Gα16Gi3 or Gα15i2, are widely used in the functional expression of TAS1R receptors ([Backes et al., 2015]; [Suess et al., 2015]; [Toda et al., 2021], [Toda et al., 2013], [Toda et al., 2018]; [Zhang et al., 2008]). Chimeric Gα15i2 (([Toda et al., 2013]), Supplementary data) was generated by replacing the last five residues of the C-terminal tail of rat Gα15i2 (EINLL) (UniProt number G3V6N8; https://www.uniprot.org/uniprot/) with the counterpart sequence from human GNAI2 (DCGLF) (UniProt number P04899-1) and cloning into the pcDNA3.1/Hygro vector (Invitrogen, Thermo Fisher Scientific, Illkirch, France) between the HindIII and NotI restriction sites, resulting in the plasmid pcDNA3.1-Gα15i2. Chimeric Gα16Gust44 construct have already been reported ([Raliou et al., 2011]). Briefly, Gα16Gust44 was generated by replacing the C-terminal of Gα16 with the C-terminal 44 residues of gustducin. As previously described, hTAS1R1 was amplified from human fungiform papillae cDNA and cloned and inserted into pcDNA3 (Invitrogen), generating pcDNA3-TAS1R1-WT (wild-type) ([Raliou et al., 2011]). […] The cDNA coding region of rTAS1R3 was synthesized with optimized-codon usage for human expression (Genewiz) and was cloned and inserted into the mammalian pcDNA4/myc-HisA (Invitrogen) expression vector between the EcoRI and NotI restriction sites, resulting in the plasmid pcDNA4-rTAS1R3. […] The sequence integrity of all the plasmid constructs was verified via automated DNA sequencing (Genewiz).
The hTAS1R1 mutants were co-expressed with the rTAS1R3 subunit in HEK293 cells. […] As a control, the functionality of the mutated receptors was checked after stimulation with S807 (Fig. S8), which interacts with TAS1R1-TMD ([Zhang et al., 2008]).

Compound	EC50 [mM]	response to the agonist alone, vs WT
N[C@@H](CCC(=O)N[C@@H](CS)C(=O)NCC(=O)O)C(=O)O [GSH, γ-L-glutamyl-L-cysteinyl-glycine]	> 30	fully abolished; also recorded: completely abolished
N[C@@H](CCC(=O)O)C(=O)O [L-Glu, L-glutamic acid, reference compound]	–	completely suppressed; also recorded: completely abolished
CCCC(CCC)NC(=O)c1ccc2c(c1)OCO2 [S807, N-(heptan-4-yl)benzo[d][1,3]dioxole-5-carboxamide, reference compound]	–	unaffected

— article PMC12615753, “Glutathione as a taste modulator: molecular mechanisms of interaction with umami and sweet taste receptors” (Food Chemistry: Molecular Sciences, 2025)
